Each compound was assayed on TGFβ1-induced expression of α-SMA protein in human HSC (assay: α-SMA ELISA in TGFβ1-activated human primary hepatic stellate cells (single agents and NTZ/statin or TZ/statin combination matrix, EOB/EOHSA)). Conditions: Homo sapiens; hHSC, 1 h preincubation, TGFβ1 1 ng/mL, 48 h, ELISA; read-out: IC50, reduction of α-SMA level in TGFβ-induced HSC.
Format: cell-based
Method: After 48 hours of incubation, the expression of α-SMA was measured by ELISA. […] Data are presented as mean (triplicates)±standard deviation (SD). Statistical analyses were performed by one-way ANOVA followed by Bonferroni post-hoc tests, using Sigma Plot 11.0 software. […] After 48 hours of incubation, the expression of α-SMA was measured by ELISA. […] Data are presented as mean (triplicates)±standard deviation (SD). Statistical analyses were performed by one-way ANOVA followed by Bonferroni post-hoc tests, using Sigma Plot 11.0 software. […] Combinations were tested in a dose-response matrix format and analyzed according to the excess over Bliss (EOB) additivism model. Dilution series of NTZ (column) and pitavastatin (row) were prepared, including their respective DMSO controls. […] Data are presented as mean of quadruplicates. (B) EOB scores were calculated as described in Materials and Methods. Any compound pair with positive EOB values was considered synergistic (colored from light grey to black). […] Data are presented as mean (quadruplicates)±standard deviation (SD). Statistical analyses between single agent vs product combination were performed by student t-test or Mann-Whitney Rank Sum Test using Sigma Plot 11.0 software. [*: p<0.05; **: p<0.01; ***: p<0.001]. […] Cell-culture flasks were coated with poly-L lysine (Sigma cat #P4707) for a better adherence. The checkerboard matrix was adopted. NTZ or TZ and statin stocks were serially diluted in DMSO in a 5-points series in a row (statin) and a column (NTZ or TZ) of a 96-well plate. […] Then, 2-fold and 4-fold higher and lower concentrations were selected. […] The human primary hepatic stellate cells (hHSC) (Innoprot) were cultured under standard conditions, as described above. […] Plates were then incubated for 30 min on ice using a plate shaker, before storage at -20° C. The level of α-SMA was measured using a Sandwich ELISA. Briefly, the wells of an ELISA plate were first coated with the capture antibody (mouse monoclonal anti-ACTA2, Abnova) at 4° C. overnight. […] The cell lysates were transferred into the wells for binding to the capture antibody for a period of 2 h at room temperature. After the washing procedure, the detection antibody (biotinylated mouse monoclonal anti-ACTA2, Abnova) was added for 2 hours at room temperature followed by 3 washes. For the detection, an HRP-conjugated streptavidin (R&D Systems cat #DY998) was first applied for 30 min at room temperature. […] Upon oxidation, TMB forms a water-soluble blue reaction product that becomes yellow with addition of sulfuric acid (solution stop), enabling accurate measurement of the intensity at 450 nm using a spectrophotometer. The developed color is directly proportional to the amount of α-SMA present in the lysate. […] Expected Bliss additivism score (E) was firstly determined by the equation: E=(A+B)-(A×B) where A and B are the percentage inhibitions converted into fractions within a range of 0 to 1 of NTZ (A) and a given statin (B) at a given dose. […] For each product combination (NTZ+statin), an additional total Bliss score was calculated by summation of all EOB. […] The significance of the observed differences between NTZ/statin or TZ/statin and single agents were estimated by a student t-test or Mann-Whitney Rank Sum Test using Sigma Plot 11.0 software [*: p<0.05; **: p<0.01; ***: p<0.001].

IC50	Structure (SMILES)
1000 to 3000 nM	CC(C)c1c(C(=O)Nc2ccccc2)c(-c2ccccc2)c(-c2ccc(F)cc2)n1CC[C@@H](O)C[C@@H](O)CC(=O)O [atorvastatin]
< 1000 nM	CC(C)n1c(/C=C/C(O)CC(O)CC(=O)O)c(-c2ccc(F)cc2)c2ccccc21 (stereo not drawn) [fluvastatin]
1000 to 3000 nM	CC[C@H](C)C(=O)O[C@H]1C[C@@H](C)C=C2C=C[C@H](C)[C@H](CC[C@@H]3C[C@@H](O)CC(=O)O3)[C@H]21 [lovastatin]
< 1000 nM	O=C(O)C[C@H](O)C[C@H](O)/C=C/c1c(C2CC2)nc2ccccc2c1-c1ccc(F)cc1 [pitavastatin]

Same assay, conditions: hHSC, TGFβ1 1 ng/mL, 48 h; result in words

Structure (SMILES)	antifibrotic activity as single agent (α-SMA, dose-response)
CC[C@H](C)C(=O)O[C@H]1C[C@H](O)C=C2C=C[C@H](C)[C@H](CC[C@@H](O)C[C@@H](O)CC(=O)O)[C@H]21 [pravastatin]	inactive
CC(C)c1nc(N(C)S(C)(=O)=O)nc(-c2ccc(F)cc2)c1/C=C/[C@@H](O)C[C@@H](O)CC(=O)O [rosuvastatin]	significant antifibrotic activity but only at the highest doses
